Measured values taken from paper PMC10887108, “Novel Brain-Penetrant, Small-Molecule Tubulin Destabilizers for the Treatment of Glioblastoma” (Biomedicines, 2024).

Assay: Brain pharmacokinetics after oral dosing
Assay type: in vivo
Conditions: 100 mg/kg oral, CD-1 mice, 1, 4 and 8 h
Method: Brain pharmacokinetic studies were carried out by DMPK at WuXi AppTec, Inc. (Cranbury, NJ, USA). The brain penetrance of RGN3067 was evaluated in three male CD-1 mice. RGN3067 was formulated as a 10 mg/mL solution (20% DMSO, 80% PEG400: PVP 95:5) and administered by oral gavage at a dose of 100 mg/kg. Plasma and brain samples were collected at 1, 4, and 8 h. Samples were analyzed by LC-MS/MS. A calibration curve was established using Waters ACQUITY UPLC BEH C18 column and formic acid in water and formic acid in acetonitrile as mobile phase. Tolbutamide and labetalol were used as internal standards for LC-MS/MS analysis. Compound was detected using electrospray ionization (ESI) positive detection. Pharmacokinetic parameters were calculated using the PO-noncompartmental linear model in Phoenix WinNonlin software v8.3 (Certara, Princeton, NJ, USA).

CO[C@H]1C[C@@H](C(=O)NC(=O)Nc2ccc(Oc3ccc(Cl)cn3)c(C)c2)C1 [RGN3067]
distribution in plasma and brain: equal distribution in plasma and brain at all time points
